Data published in ChEMBL document CHEMBL6083254, “Optimization of B-Ring-Functionalized Antimalarial Tambjamines and Prodiginines” (J Med Chem, 2024).

Assays:
Plasmodium falciparum [1] = assay: microbe, parasite or virus in culture; details: Dd2, 72 h
Plasmodium falciparum [2] = assay: microbe, parasite or virus in culture; details: D6, 72 h
HepG2 = assay: Cytotoxicity against human HepG2 cells assessed as cell viability incubated for 72 hrs by MTT assay; format: toxicity, cell-based; details: hepg2
Plasmodium falciparum [3] = assay: microbe, parasite or virus in culture; details: Tm90-C2B, 72 h
Plasmodium yoelii = assay: Antiplasmodial activity against asexual erythrocytic stage of Plasmodium yoelii infected in female CFI mouse model assessed as reduction in parasitemia at 25 mg/kg, po administered once daily for 4 days and measured on day 5 by Giemsa staining based microscopic analysis relative to control; format: functional; set-up: scale not given: the % may be the effect or the level left; details: time 5 day
in vitro = details: human
Description: Selectivity index, ratio of IC50 for cytotoxicity against human HepG2 cells assessed as cell viability to IC50 for antiplasmodial activity against asexual erythrocytic stage of Plasmodium falciparum D6 assessed as inhibition of parasitic growth incubated

[4] = Metabolic stability in mouse liver microsomes assessed as intrinsic clearance measured upto 60 mins LC-MS analysis
[5] = Aqueous solubility of compound in PBS buffer at pH 7.4 incubated for 90 mins by UV-vis spectroscopic analysis; details: pH 7.4, 1.5 h
[6] = Metabolic stability in mouse liver microsomes assessed as half life measured upto 60 mins LC-MS analysis
[7] = Metabolic stability in human liver microsomes assessed as half life measured upto 60 mins LC-MS analysis
[8] = Metabolic stability in human liver microsomes assessed as intrinsic clearance measured upto 60 mins LC-MS analysis

SMILES	IC50 (Plasmodium falciparum [1])	IC50 (Plasmodium falciparum [2])	IC50 (HepG2)	IC50 (Plasmodium falciparum [3])	Activity (Plasmodium yoelii)	selectivity ratio (in vitro)	microsomal CLint at 1 h [4]	solubility [5]	half-life at 1 h [6]	half-life at 1 h [7]	microsomal CLint at 1 h [8]
CCCCCCCCCCCCN/C=C1\N=C(c2ccc[nH]2)C=C1OC(C)C.Cl	37.5 nM	29.7 nM	3.07 µM	37.2 nM	0%	103					
CCCCCCCCCCCCN/C=C1\N=C(c2ccc[nH]2)C=C1Oc1ccc(Cl)cc1	> 2500 nM	> 2500 nM		> 2500 nM							
Clc1ccc(COC2=CC(c3ccc[nH]3)=N/C2=C\NC2CCCCCC2)cc1	79.9 nM	121 nM	8.48 µM	97.8 nM		70					
CC(C)CN/C=C1\N=C(c2ccc[nH]2)C=C1OC(C)C.Cl	37.7 nM		7.42 µM	34.2 nM	0%	201					
CC(C)CN/C=C1\N=C(c2ccc[nH]2)C=C1OCc1ccc(Cl)cc1	62.3 nM	89.7 nM	6.96 µM	68.8 nM		78					
CC(C)CN/C=C1\N=C(c2ccc[nH]2)C=C1OCc1ccc(OC(F)(F)F)cc1	205 nM			335 nM							
Cl.FC(F)(F)Oc1ccc(COC2=CC(c3ccc[nH]3)=N/C2=C\NC2CCCCCC2)cc1	38.7 nM	49.5 nM	5.72 µM	26.3 nM	72.3%	116					
Cl.FC(F)(F)Oc1ccc(COC2=CC(c3ccc[nH]3)=N/C2=C\NC23CC4CC(CC(C4)C2)C3)cc1	1.82 nM	2.01 nM	3.74 µM	2.43 nM	81.8%	1860	24.6 µL/min/mg	< 3.125 µM	56.4 min	45.4 min	30.6 µL/min/mg
CC(C)OC1=CC(c2ccc[nH]2)=N/C1=C\NC12CC3CC(CC(C3)C1)C2.Cl	2 nM	1.78 nM	1.27 µM	2.05 nM	74.1%	715	44.8 µL/min/mg	78 µM	30.9 min	14.2 min	97.6 µL/min/mg
CC(C)OC1=CC(c2ccc[nH]2)=N/C1=C\NC1CCCCCC1.Cl	3.82 nM	3.51 nM	3.58 µM	5.42 nM	43.6%	1020	76.8 µL/min/mg	157 µM	18 min	12.2 min	114 µL/min/mg
CC(C)CN/C=C1\N=C(c2ccc[nH]2)C=C1Oc1ccc(Cl)cc1	> 2500 nM	> 2500 nM		> 2500 nM							
CC(C)CN/C=C1\N=C(c2ccc[nH]2)C=C1OCc1ccccc1.Cl	58 nM	48.7 nM	8.86 µM	52.1 nM	0%	182					
Cl.FC(F)(F)Oc1ccc(OC2=CC(c3ccc[nH]3)=N/C2=C\NC23CC4CC(CC(C4)C2)C3)cc1	242 nM	193 nM	28.2 µM	204 nM	83%	146					
C1=C(OCc2ccccc2)/C(=C/NC2CCCCCC2)N=C1c1ccc[nH]1.Cl	17.3 nM	19 nM	3.68 µM	21.3 nM	59.5%	194	16 µL/min/mg	15.8 µM	> 60 min	16.3 min	85.1 µL/min/mg
CCCCCCCCCCCCN/C=C1\N=C(c2ccc[nH]2)C=C1Oc1ccc(OC(F)(F)F)cc1	> 2500 nM	> 2500 nM		> 2500 nM							
CCCCCCCCCCCCN/C=C1\N=C(c2ccc[nH]2)C=C1OCCC.Cl	44.2 nM	32.8 nM	4.44 µM	39 nM	16.4%	135					
C1=C(Oc2ccccc2)/C(=C/NC2CCCCCC2)N=C1c1ccc[nH]1	317 nM	354 nM		276 nM							
CCCCCCCCCCCc1ccc(/C=C2\N=C(c3ccc[nH]3)C=C2OCc2ccc(Cl)cc2)[nH]1	939 nM			1850 nM							
CCCOC1=CC(c2ccc[nH]2)=N/C1=C\NCC(C)C.Cl	15.5 nM	20.9 nM	7.63 µM	23.1 nM	75.4%	365					
CCOC1=CC(c2ccc[nH]2)=N/C1=C\NC12CC3CC(CC(C3)C1)C2.Cl	0.77 nM	0.497 nM	1.07 µM	0.715 nM	24%	2150	42.4 µL/min/mg	115 µM	32.7 min	17.7 min	78.3 µL/min/mg
